Experiments:
Settings in all cases: 48 h
NOMO1 [1] = assay: cell viability relative to DMSO control; higher = less cytotoxic
Procedure, shortened: (§1)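 NOMO1 or SEM cells were plated at 500 cells/well and P12-Ichikawa cells at 1000 cells/well in 1536-well plates (5 μl), after each leukemia line had been adapted for at least four passages in each medium. Pin dosing delivered library compounds in DMSO at 11 threefold concentrations, 47 μM to 0.79 nM. CellTiter-Glo One luminescence was read after 48 h at 37°C. Viability is reported as a per-plate percentage of DMSO wells, with cell-free wells as background.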

NOMO1 [2] = assay: AUC of viability dose-response curve (% viability x log10 dose units); higher = less sensitive
Procedure, shortened: (§2)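 Leukemia cells adapted to each medium (500 or 1000 cells/well, 1536-well plates) were exposed to library compounds in DMSO for 48 h at 37°C at 11 threefold doses, 47 μM to 0.79 nM. Luminescence by CellTiter-Glo One was normalised per plate to DMSO and cell-free wells, then fitted with a four-parameter log-logistic curve on log10 dose. Curves above full viability were scaled and quality-control failures removed before area under the curve was integrated by trapezoidal rule.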

P12-Ichikawa [3] = assay: as above
Procedure, shortened: as §2

SEM cells [4] = assay: as above
Procedure, shortened: as §2

P12-Ichikawa [5] = assay: cell viability relative to DMSO control; higher = less cytotoxic
Procedure, shortened: as §1

SEM cells [6] = assay: as above
Procedure, shortened: as §1

Cc1cc(CN2CCN(c3c(Br)cnc4[nH]c(-c5ccc(N6CCN(C)CC6)cc5)nc34)CC2)no1
NOMO1 [1], RPMI 5 mM glucose + 10% FBS
Settings	cell viability [%]
0.000781 µM	120
0.00234 µM	131
0.00702 µM	120
0.0211 µM	129
0.0632 µM	138
0.19 µM	117
0.569 µM	113
1.71 µM	70.2
5.12 µM	102
15.4 µM	78.1
46.1 µM	80.6

AUC of viability dose-response curve
Settings	NOMO1 [2]	P12-Ichikawa [3]	SEM cells [4]
HPLM + 10% dialyzed FBS	377	329	317
RPMI 5 mM glucose + 10% FBS	415	333	310
RPMI 5 mM glucose + 10% dialyzed FBS	410	348	307

Cc1ccccc1C(C(=O)NC1CCCCC1)N(C(=O)Cn1ccnc1C)c1cccc(F)c1 (stereo unspecified)
cell viability [%]
Settings	NOMO1 [1]	P12-Ichikawa [5]	SEM cells [6]
HPLM + 10% dialyzed FBS, 0.000781 µM	96.4	117	109
HPLM + 10% dialyzed FBS, 0.00234 µM	93.1	114	31
HPLM + 10% dialyzed FBS, 0.00702 µM	122	115	118
HPLM + 10% dialyzed FBS, 0.0211 µM	119	105	111
HPLM + 10% dialyzed FBS, 0.0632 µM	123	105	109
HPLM + 10% dialyzed FBS, 0.19 µM	111	104	130
HPLM + 10% dialyzed FBS, 0.569 µM	108	109	127
HPLM + 10% dialyzed FBS, 1.71 µM	90	104	124
HPLM + 10% dialyzed FBS, 5.12 µM	100	104	114
HPLM + 10% dialyzed FBS, 15.4 µM	99.2	102	100
HPLM + 10% dialyzed FBS, 46.1 µM	89.4	102	92.7
RPMI 5 mM glucose + 10% FBS, 0.000781 µM	88.6	100	112
RPMI 5 mM glucose + 10% FBS, 0.00234 µM	93.9	113	108
RPMI 5 mM glucose + 10% FBS, 0.00702 µM	102	105	96.9
RPMI 5 mM glucose + 10% FBS, 0.0211 µM	91.9	106	103
RPMI 5 mM glucose + 10% FBS, 0.0632 µM	93.9	105	98.4
RPMI 5 mM glucose + 10% FBS, 0.19 µM	109	101	114
RPMI 5 mM glucose + 10% FBS, 0.569 µM	106	103	112
RPMI 5 mM glucose + 10% FBS, 1.71 µM	91.7	102	121
RPMI 5 mM glucose + 10% FBS, 5.12 µM	90.7	93.1	110
RPMI 5 mM glucose + 10% FBS, 15.4 µM	86	102	84.1
RPMI 5 mM glucose + 10% FBS, 46.1 µM	97.3	97.1	88.9
RPMI 5 mM glucose + 10% dialyzed FBS, 0.000781 µM	104	96.2	84.5
RPMI 5 mM glucose + 10% dialyzed FBS, 0.00234 µM	85.9	103	27.9
RPMI 5 mM glucose + 10% dialyzed FBS, 0.00702 µM	104	104	100
RPMI 5 mM glucose + 10% dialyzed FBS, 0.0211 µM	106	104	105
RPMI 5 mM glucose + 10% dialyzed FBS, 0.0632 µM	99.1	102	102
RPMI 5 mM glucose + 10% dialyzed FBS, 0.19 µM	116	100	88.5
RPMI 5 mM glucose + 10% dialyzed FBS, 0.569 µM	100	98.7	110
RPMI 5 mM glucose + 10% dialyzed FBS, 1.71 µM	91	97.9	95.2
RPMI 5 mM glucose + 10% dialyzed FBS, 5.12 µM	91.4	95.2	97.4
RPMI 5 mM glucose + 10% dialyzed FBS, 15.4 µM	93.3	93.1	93.6
RPMI 5 mM glucose + 10% dialyzed FBS, 46.1 µM	80.7	97.3	90.6

AUC of viability dose-response curve
Settings	NOMO1 [2]	P12-Ichikawa [3]	SEM cells [4]
HPLM + 10% dialyzed FBS	452	442	449
RPMI 5 mM glucose + 10% FBS	456	461	462
RPMI 5 mM glucose + 10% dialyzed FBS	455	466	438

CC(C)n1nc(-c2cc3cc(O)ccc3[nH]2)c2c(N)ncnc21
cell viability [%]
Settings	NOMO1 [1]	P12-Ichikawa [5]	SEM cells [6]
HPLM + 10% dialyzed FBS, 0.000781 µM	79	109	93.3
HPLM + 10% dialyzed FBS, 0.00234 µM	124	107	104
HPLM + 10% dialyzed FBS, 0.00702 µM	110	112	111
HPLM + 10% dialyzed FBS, 0.0211 µM	107	106	94.3
HPLM + 10% dialyzed FBS, 0.0632 µM	99.7	99.4	81
HPLM + 10% dialyzed FBS, 0.19 µM	94.7	90	84.4
HPLM + 10% dialyzed FBS, 0.569 µM	65.7	73	45.2
HPLM + 10% dialyzed FBS, 1.71 µM	61.6	72.7	52.9
HPLM + 10% dialyzed FBS, 5.12 µM	44.7	64.9	25.9
HPLM + 10% dialyzed FBS, 15.4 µM	31.2	47.4	16.7
HPLM + 10% dialyzed FBS, 46.1 µM	27	36.8	6.97
RPMI 5 mM glucose + 10% FBS, 0.000781 µM	96.2	100	106
RPMI 5 mM glucose + 10% FBS, 0.00234 µM	113	109	107
RPMI 5 mM glucose + 10% FBS, 0.00702 µM	104	110	114
RPMI 5 mM glucose + 10% FBS, 0.0211 µM	105	95.3	136
RPMI 5 mM glucose + 10% FBS, 0.0632 µM	104	92.8	108
RPMI 5 mM glucose + 10% FBS, 0.19 µM	96.6	79.5	85.4
RPMI 5 mM glucose + 10% FBS, 0.569 µM	88.1	66.5	66.3
RPMI 5 mM glucose + 10% FBS, 1.71 µM	90.2	56.9	66
RPMI 5 mM glucose + 10% FBS, 5.12 µM	71.8	52.5	38
RPMI 5 mM glucose + 10% FBS, 15.4 µM	44.1	35.4	23.6
RPMI 5 mM glucose + 10% FBS, 46.1 µM	23	17.5	8.3
RPMI 5 mM glucose + 10% dialyzed FBS, 0.000781 µM	111	105	90.8
RPMI 5 mM glucose + 10% dialyzed FBS, 0.00234 µM	110	116	99.4
RPMI 5 mM glucose + 10% dialyzed FBS, 0.00702 µM	100	111	92.4
RPMI 5 mM glucose + 10% dialyzed FBS, 0.0211 µM	101	118	87.7
RPMI 5 mM glucose + 10% dialyzed FBS, 0.0632 µM	101	108	94.8
RPMI 5 mM glucose + 10% dialyzed FBS, 0.19 µM	90.9	86.4	87.6
RPMI 5 mM glucose + 10% dialyzed FBS, 0.569 µM	76.7	73.6	48.7
RPMI 5 mM glucose + 10% dialyzed FBS, 1.71 µM	78	66.6	52.4
RPMI 5 mM glucose + 10% dialyzed FBS, 5.12 µM	54.2	48.6	35.4
RPMI 5 mM glucose + 10% dialyzed FBS, 15.4 µM	34.1	30.8	20.9
RPMI 5 mM glucose + 10% dialyzed FBS, 46.1 µM	14.1	20.5	6.33

AUC of viability dose-response curve
Settings	NOMO1 [2]	P12-Ichikawa [3]	SEM cells [4]
HPLM + 10% dialyzed FBS	350	360	306
RPMI 5 mM glucose + 10% FBS	399	332	327
RPMI 5 mM glucose + 10% dialyzed FBS	355	341	317
